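Protocol summary: plate cells (96-well), add compound at 5 concentrations, incubate 48 h, interpolate endpoints linearly. At the GI50, growth is halved. At the TGI there is no net growth.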
Tests used:
Experiment in all cases: inhibition of tumour cell growth, NCI panel, 48 h
BT-549 breast = tested on: BT-549 breast
NCI/ADR-RES ovarian = tested on: NCI/ADR-RES ovarian
A549 NSCLC = tested on: A549 NSCLC
HCT-116 colon = tested on: HCT-116 colon
HCT-15 colon = tested on: HCT-15 colon
HT29 colon = tested on: HT29 colon
UACC-62 melanoma = tested on: UACC-62 melanoma
SNB-19 CNS = tested on: SNB-19 CNS
MDA-N = tested on: MDA-N
OVCAR-3 ovarian = tested on: OVCAR-3 ovarian
OVCAR-5 ovarian = tested on: OVCAR-5 ovarian
SR leukemia = tested on: SR leukemia
K-562 leukemia = tested on: K-562 leukemia
SF-268 CNS = tested on: SF-268 CNS
SW-620 colon = tested on: SW-620 colon
MALME-3M melanoma = tested on: MALME-3M melanoma
M14 melanoma = tested on: M14 melanoma
OVCAR-8 ovarian = tested on: OVCAR-8 ovarian
CCRF-CEM leukemia = tested on: CCRF-CEM leukemia
SF-539 CNS = tested on: SF-539 CNS
MOLT-4 leukemia = tested on: MOLT-4 leukemia
PC-3 prostate = tested on: PC-3 prostate
IGROV1 ovarian = tested on: IGROV1 ovarian
SK-MEL-5 melanoma = tested on: SK-MEL-5 melanoma
HOP-62 NSCLC = tested on: HOP-62 NSCLC
LOX IMVI melanoma = tested on: LOX IMVI melanoma
HL-60(TB) leukemia = tested on: HL-60(TB) leukemia
T-47D breast = tested on: T-47D breast
MDA-MB-435 = tested on: MDA-MB-435
SNB-75 CNS = tested on: SNB-75 CNS
TK-10 renal = tested on: TK-10 renal
OVCAR-4 ovarian = tested on: OVCAR-4 ovarian
HS 578T breast = tested on: HS 578T breast
UACC-257 melanoma = tested on: UACC-257 melanoma
ACHN renal = tested on: ACHN renal
NCI-H23 lung = tested on: NCI-H23 lung
EKVX NSCLC = tested on: EKVX NSCLC
SK-OV-3 ovarian = tested on: SK-OV-3 ovarian
RPMI-8226 leukemia = tested on: RPMI-8226 leukemia
SN12C renal = tested on: SN12C renal
MDA-MB-231 breast = tested on: MDA-MB-231 breast
KM12 colon = tested on: KM12 colon
COLO 205 colon = tested on: COLO 205 colon
U251 CNS = tested on: U251 CNS
DU-145 prostate = tested on: DU-145 prostate
MCF7 breast = tested on: MCF7 breast
NCI-H460 lung = tested on: NCI-H460 lung
UO-31 renal = tested on: UO-31 renal
SF-295 CNS = tested on: SF-295 CNS
CAKI-1 renal = tested on: CAKI-1 renal
SK-MEL-28 melanoma = tested on: SK-MEL-28 melanoma
RXF 393 renal = tested on: RXF 393 renal
NCI-H522 lung = tested on: NCI-H522 lung
HCC-2998 colon = tested on: HCC-2998 colon
A498 renal = tested on: A498 renal
NCI-H226 lung = tested on: NCI-H226 lung
SK-MEL-2 melanoma = tested on: SK-MEL-2 melanoma
786-0 renal = tested on: 786-0 renal

## Cc1ccnn1CCc1ccc(Cl)cc1Cl
BT-549 breast
  TGI: 31.3 µM
NCI/ADR-RES ovarian
  TGI: > 100 µM
A549 NSCLC
  TGI: > 100 µM
HCT-116 colon
  TGI: > 100 µM
HCT-15 colon
  TGI: > 100 µM
HT29 colon
  TGI: > 100 µM
UACC-62 melanoma
  TGI: 29.1 µM
SNB-19 CNS
  TGI: > 100 µM
MDA-N
  TGI: > 100 µM
OVCAR-3 ovarian
  TGI: 45.3 µM
OVCAR-5 ovarian
  TGI: > 100 µM
SR leukemia
  TGI: > 100 µM
K-562 leukemia
  TGI: > 100 µM
SF-268 CNS
  TGI: > 100 µM
SW-620 colon
  TGI: > 100 µM
MALME-3M melanoma
  TGI: > 100 µM
M14 melanoma
  TGI: > 100 µM
OVCAR-8 ovarian
  TGI: > 100 µM
CCRF-CEM leukemia
  TGI: > 100 µM
SF-539 CNS
  TGI: 49.6 µM
MOLT-4 leukemia
  TGI: 56.6 µM
PC-3 prostate
  TGI: > 100 µM
IGROV1 ovarian
  TGI: > 100 µM
SK-MEL-5 melanoma
  TGI: 37.7 µM
HOP-62 NSCLC
  TGI: 32.5 µM
LOX IMVI melanoma
  TGI: > 100 µM
HL-60(TB) leukemia
  TGI: 42.4 µM
T-47D breast
  TGI: > 100 µM
MDA-MB-435
  TGI: > 100 µM
SNB-75 CNS
  TGI: > 100 µM
TK-10 renal
  TGI: 48.1 µM
OVCAR-4 ovarian
  TGI: > 100 µM
HS 578T breast
  TGI: > 100 µM
UACC-257 melanoma
  TGI: > 100 µM
ACHN renal
  TGI: > 100 µM
NCI-H23 lung
  TGI: > 100 µM
EKVX NSCLC
  TGI: 20.7 µM
SK-OV-3 ovarian
  TGI: > 100 µM
RPMI-8226 leukemia
  TGI: 38.2 µM
SN12C renal
  TGI: > 100 µM
MDA-MB-231 breast
  TGI: > 100 µM
KM12 colon
  TGI: > 100000 nM
COLO 205 colon
  TGI: > 100 µM
U251 CNS
  TGI: > 100 µM
DU-145 prostate
  TGI: > 100 µM
MCF7 breast
  TGI: > 100 µM
NCI-H460 lung
  TGI: > 100 µM
UO-31 renal
  TGI: 46.3 µM
SF-295 CNS
  TGI: 52.9 µM
CAKI-1 renal
  TGI: > 100 µM
SK-MEL-28 melanoma
  TGI: > 100 µM
RXF 393 renal
  TGI: 82.9 µM

## C[C@H]1CCC/C=C/[C@@H]2C[C@H](O)C[C@H]2[C@H](O)C(O)C(O)C(=O)O1 (stereo partly drawn)
BT-549 breast
  GI50: 2720 nM
  TGI: > 100 µM
NCI/ADR-RES ovarian
  GI50: 1620 nM
A549 NSCLC
  GI50: 4.54 µM
  TGI: > 100 µM
HCT-116 colon
  GI50: 3.38 µM
  TGI: 19 µM
HT29 colon
  GI50: 1240 nM
  TGI: 17.9 µM
NCI-H522 lung
  GI50: 2260 nM
  TGI: 4.52 µM
UACC-62 melanoma
  GI50: 1070 nM
SNB-19 CNS
  GI50: 3.35 µM
  TGI: > 100 µM
MDA-N
  GI50: 4.53 µM
  TGI: > 100 µM
OVCAR-3 ovarian
  GI50: 2350 nM
  TGI: 20.1 µM
OVCAR-5 ovarian
  GI50: 6.24 µM
  TGI: > 100 µM
SR leukemia
  GI50: 1280 nM
  TGI: 3.66 µM
K-562 leukemia
  GI50: 2380 nM
  TGI: > 23.6 µM
HCC-2998 colon
  GI50: 2150 nM
  TGI: > 22.4 µM
A498 renal
  GI50: 2290 nM
  TGI: 7.96 µM
SF-268 CNS
  GI50: 1190 nM
  TGI: > 100 µM
SW-620 colon
  GI50: 3.26 µM
  TGI: > 100 µM
MALME-3M melanoma
  GI50: 1560 nM
  TGI: 5.57 µM
M14 melanoma
  GI50: 3.61 µM
  TGI: > 100 µM
OVCAR-8 ovarian
  GI50: 1160 nM
  TGI: 5.11 µM
CCRF-CEM leukemia
  GI50: 2730 nM
  TGI: > 25.9 µM
NCI-H226 lung
  GI50: 189 nM
  TGI: 399 nM
SF-539 CNS
  GI50: 677 nM
  TGI: > 100 µM
MOLT-4 leukemia
  GI50: 906 nM
  TGI: 4.56 µM
PC-3 prostate
  GI50: 3.44 µM
  TGI: > 29.8 µM
IGROV1 ovarian
  GI50: 2960 nM
  TGI: 11.7 µM
SK-MEL-5 melanoma
  GI50: 362 nM
HOP-62 NSCLC
  GI50: 4.85 µM
  TGI: > 100 µM
SK-MEL-2 melanoma
  GI50: 3.81 µM
  TGI: > 23.9 µM
HL-60(TB) leukemia
  GI50: 251 nM
  TGI: 2.31 µM
T-47D breast
  GI50: 5.96 µM
  TGI: > 100 µM
MDA-MB-435
  GI50: 3.74 µM
  TGI: > 100 µM
SNB-75 CNS
  GI50: 578 nM
TK-10 renal
  GI50: 6.42 µM
  TGI: > 100 µM
HS 578T breast
  GI50: 702 nM
  TGI: > 100 µM
UACC-257 melanoma
  GI50: 1100 nM
  TGI: > 100 µM
ACHN renal
  GI50: 3.43 µM
  TGI: 20.9 µM
NCI-H23 lung
  GI50: 2230 nM
  TGI: > 100 µM
EKVX NSCLC
  GI50: 4.24 µM
  TGI: > 100 µM
SK-OV-3 ovarian
  GI50: 3.75 µM
  TGI: > 100 µM
RPMI-8226 leukemia
  GI50: 2660 nM
  TGI: 14.9 µM
SN12C renal
  GI50: 2660 nM
  TGI: 7.63 µM
MDA-MB-231 breast
  GI50: 2500 nM
  TGI: 4.84 µM
KM12 colon
  GI50: 396 nM
  TGI: 1380 nM
COLO 205 colon
  GI50: 4.07 µM
  TGI: > 100 µM
U251 CNS
  GI50: 3.51 µM
  TGI: > 100 µM
786-0 renal
  GI50: 788 nM
  TGI: > 100 µM
DU-145 prostate
  GI50: 6.69 µM
  TGI: > 100 µM
MCF7 breast
  GI50: 2640 nM
  TGI: > 20.1 µM
NCI-H460 lung
  GI50: 2650 nM
  TGI: > 100 µM
UO-31 renal
  GI50: 3.44 µM
  TGI: > 76.1 µM
SF-295 CNS
  GI50: 4.66 µM
  TGI: > 100 µM
CAKI-1 renal
  GI50: 3.78 µM
  TGI: 46 µM
SK-MEL-28 melanoma
  GI50: 1250 nM
  TGI: > 100 µM
RXF 393 renal
  GI50: 2520 nM
  TGI: > 24.6 µM

Source: PubChem BioAssay (NCI)
